Broadly, the pIC50 is −log10 of the IC50, conventionally taken in molar units.

Molecules are shown by their SMILES.

Sequence of human active recombinant p38α-6His tagged (Q16539 whole entry): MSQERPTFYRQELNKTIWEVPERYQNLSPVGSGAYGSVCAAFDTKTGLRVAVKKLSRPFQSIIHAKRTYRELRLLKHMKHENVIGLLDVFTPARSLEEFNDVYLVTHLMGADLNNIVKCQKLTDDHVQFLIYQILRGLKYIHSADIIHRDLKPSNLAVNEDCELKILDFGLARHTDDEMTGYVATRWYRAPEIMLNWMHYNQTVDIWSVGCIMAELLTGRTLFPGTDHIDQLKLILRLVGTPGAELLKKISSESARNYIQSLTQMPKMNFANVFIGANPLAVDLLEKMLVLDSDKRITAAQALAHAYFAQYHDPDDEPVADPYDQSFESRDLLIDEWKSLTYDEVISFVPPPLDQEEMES

This assay concerns the target human active recombinant p38α-6His tagged (Homo sapiens, UniProt Q16539). Briefly: P38 Alpha Enzyme Assay (AlphaScreen, biotinylated-ATF2 substrate).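 Further: 0.5 nM final p38α, reaction started with ATP and run 45 min at 37 °C, phospho-ATF2 read by antibody-based AlphaScreen, background wells quenched with EDTA before ATP.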 In kind it is biochemical. To be noted: p38 alpha enzyme inhibition; means of replicate determinations; 4 h pre-incubation at 37° C.; SD of assay 0.2-0.3 log units.
`Cc1ccc(C(=O)NC2CC2)cc1-n1ccnc(NC[C@@H](C)c2ccccc2)c1=O` [Example 58, N-Cyclopropyl-4-methyl-3-[2-oxo-3-[[(2S)-2-phenylpropyl]amino]-1(2H)-pyrazinyl]-benzamide]: the pIC50 came out at 7.
On to `Cc1ccc(C(=O)NC2CC2)cc1-n1ccnc(N2CCCC(c3ccc(OCCN4CCCC4)cc3)C2)c1=O` (stereo not drawn) [Example 59, N-Cyclopropyl-4-methyl-3-[2-oxo-3-[3-[4-[2-(1-pyrrolidinyl)ethoxy]phenyl]-1-piperidinyl]-1(2H)-pyrazinyl]-benzamide], for which the negative-log IC50 (pIC50) turned out to be 7.2.
In the case of `Cc1ccc(C(=O)NC2CC2)cc1-n1ccnc(N2CCCC(c3ccccc3)C2)c1=O` (stereo not drawn) [Example 60, N-Cyclopropyl-4-methyl-3-[2-oxo-3-(3-phenyl-1-piperidinyl)-1(2H)-pyrazinyl]-benzamide], the pIC50 was 7.3.
In the case of `Cc1ccc(C(=O)NC2CC2)cc1-n1ccnc(NCC(c2ccccc2)N(C)C)c1=O` (stereo not drawn) [Example 61, N-Cyclopropyl-3-[3-[[2-(dimethylamino)-2-phenylethyl]amino]-2-oxo-1(2H)-pyrazinyl]-4-methyl-benzamide], the pIC50 is recorded as 6.3.
In the case of `Cc1ccc(C(=O)NC2CC2)cc1-n1ccnc(NC(C)(C)Cc2ccc(F)cc2)c1=O` [Example 62, N-Cyclopropyl-3-[3-[[2-(4-fluorophenyl)-1,1-dimethylethyl]amino]-2-oxo-1(2H)-pyrazinyl]-4-methyl-benzamide], the negative logarithm of the IC50 (pIC50) was determined as 7.
As to `Cc1ccc(C(=O)NC2CC2)cc1-n1ccnc(NCC(c2ccccc2)N2CCCC2)c1=O` (stereo not drawn) [Example 63, N-Cyclopropyl-4-methyl-3-[2-oxo-3-[[2-phenyl-2-(1-pyrrolidinyl)ethyl]amino]-1(2H)-pyrazinyl]-benzamide], the negative-log IC50 (pIC50) is given as 6.3.
`Cc1ccc(C(=O)NC2CC2)cc1-n1ccnc(NC2Cc3ccccc3C2)c1=O` [Example 64, N-Cyclopropyl-3-[3-[(2,3-dihydro-1H-inden-2-yl)amino]-2-oxo-1(2H)-pyrazinyl]-4-methyl-benzamide]: the pIC50 was determined as 6.8.
With `Cc1ccc(C(=O)NC2CC2)cc1-n1ccnc(NC(C)(C)Cc2ccccc2)c1=O` [Example 65, N-Cyclopropyl-3-[3-[(1,1-dimethyl-2-phenylethyl)amino]-2-oxo-1(2H)-pyrazinyl]-4-methyl-benzamide], the negative-log IC50 (pIC50) is 7.
As for `Cc1ccc(C(=O)NC2CC2)cc1-n1ccnc(N(C)CCc2ccccc2)c1=O` [Example 66, N-Cyclopropyl-4-methyl-3-[3-[methyl(2-phenylethyl)amino]-2-oxo-1(2H)-pyrazinyl]benzamide], the pIC50 amounted to 6.5.
In the case of `Cc1ccc(C(=O)NC2CC2)cc1-n1ccnc(N2CCOC(c3ccccc3)C2)c1=O` (stereo not drawn) [Example 67, N-Cyclopropyl-4-methyl-3-[2-oxo-3-(2-phenyl-4-morpholinyl)-1(2H)-pyrazinyl]-benzamide], the pIC50 stood at 6.6.
In the case of `Cc1ccc(C(=O)NC2CC2)cc1-n1ccnc(NCc2ccccc2O)c1=O` [Example 68, N-Cyclopropyl-3-[3-[[(2-hydroxyphenyl)methyl]amino]-2-oxo-1(2H)-pyrazinyl]-4-methyl-benzamide], the negative-log IC50 (pIC50) is 7.6.
For the compound `Cc1ccc(C(=O)NC2CC2)cc1-n1ccnc(NCc2cccc(C(=O)NC3CC3)c2)c1=O` [Example 69, N-Cyclopropyl-3-[3-[[[3-[(cyclopropylamino)carbonyl]phenyl]methyl]amino]-2-oxo-1(2H)-pyrazinyl]-4-methyl-benzamide], the pIC50 came to 6.2.
As for `Cc1ccc(C(=O)NC2CC2)cc1-n1ccnc(NCCc2ccc(O)cc2)c1=O` [Example 70, N-Cyclopropyl-3-[3-[[2-(4-hydroxyphenyl)ethyl]amino]-2-oxo-1(2H)-pyrazinyl]-4-methyl-benzamide], the negative logarithm of the IC50 (pIC50) stood at 6.8.
`Cc1ccc(C(=O)NC2CC2)cc1-n1ccnc(NCCc2cccc(O)c2)c1=O` [Example 71, N-Cyclopropyl-3-[3-[[2-(3-hydroxyphenyl)ethyl]amino]-2-oxo-1(2H)-pyrazinyl]-4-methyl-benzamide]: the negative-log IC50 (pIC50) was 6.8.
For `Cc1ccccc1CCNc1nccn(-c2cc(C(=O)NC3CC3)ccc2C)c1=O` [Example 72, N-Cyclopropyl-4-methyl-3-[3-[[2-(2-methylphenyl)ethyl]amino]-2-oxo-1(2H)-pyrazinyl]-benzamide], the pIC50 turned out to be 7.2.
Consider `Cc1cccc(CCNc2nccn(-c3cc(C(=O)NC4CC4)ccc3C)c2=O)c1` [Example 73, N-Cyclopropyl-4-methyl-3-[3-[[2-(3-methylphenyl)ethyl]amino]-2-oxo-1(2H)-pyrazinyl]-benzamide], for which the pIC50 was 7.1.
The same measure for `Cc1ccc(CCNc2nccn(-c3cc(C(=O)NC4CC4)ccc3C)c2=O)cc1` [Example 74, N-Cyclopropyl-4-methyl-3-[3-[[2-(4-methylphenyl)ethyl]amino]-2-oxo-1(2H)-pyrazinyl]-benzamide]: 6.7; for `Cc1ccc(C(=O)NC2CC2)cc1-n1ccnc(N2CCCC2Cc2ccccc2F)c1=O` (stereo not drawn) [Example 75, N-Cyclopropyl-3-[3-[2-[(2-fluorophenyl)methyl]-1-pyrrolidinyl]-2-oxo-1(2H)-pyrazinyl]-4-methyl-benzamide]: 7.1.
The same measure for `Cc1ccc(C(=O)NC2CC2)cc1-n1ccnc(N2CCCCC2)c1=O` [Example 76, N-Cyclopropyl-4-methyl-3-[2-oxo-3-(1-pipendinyl)-1(2H)-pyrazinyl]-benzamide]: 6.8.
On to `Cc1ccc(C(=O)NC2CC2)cc1-n1ccnc(NC(CCN2CCOCC2)c2ccccc2)c1=O` (stereo not drawn) [Example 77, N-Cyclopropyl-4-methyl-3-[3-[[3-(4-morpholinyl)-1-phenylpropyl]amino]-2-oxo-1(2H)-pyrazinyl]-benzamide], for which the pIC50 turned out to be 7.5.
For `CCOc1ccccc1CNc1nccn(-c2cc(C(=O)NC3CC3)ccc2C)c1=O` [Example 78, N-Cyclopropyl-3-[3-[[(2-ethoxyphenyl)methyl]amino]-2-oxo-1(2H)-pyrazinyl]-4-methyl-benzamide], the negative-log IC50 (pIC50) is recorded as 7.8.
The same measure for `Cc1ccc(C(=O)NC2CC2)cc1-n1ccnc(NCc2ccccc2C(F)(F)F)c1=O` [Example 79, N-Cyclopropyl-4-methyl-3-[2-oxo-3-[[[2-(trifluoromethyl)phenyl]methyl]amino]-1(2H)-pyrazinyl]-benzamide]: 7.7; for `Cc1ccc(C(=O)NC2CC2)cc1-n1ccnc(N[C@H](CO)c2ccccc2)c1=O` [Example 80, N-Cyclopropyl-3-[3-[[(1S)-2-hydroxy-1-phenylethyl]amino]-2-oxo-1(2H)-pyrazinyl]-4-methyl-benzamide]: 7.9.
As for `Cc1ccc(C(=O)NC2CC2)cc1-n1ccnc(N[C@@H](CO)c2ccccc2)c1=O` [Example 81, N-Cyclopropyl-3-[3-[[(1R)-2-hydroxy-1-phenylethyl]amino]-2-oxo-1(2H)-pyrazinyl]-4-methyl-benzamide], the pIC50 is reported as 6.3.
Turning to `Cc1ccc(C(=O)NC2CC2)cc1-n1ccnc(NC(CCO)c2ccccc2)c1=O` (stereo not drawn) [Example 83, N-Cyclopropyl-3-[3-[(3-hydroxy-1-phenylpropyl)amino]-2-oxo-1(2H)-pyrazinyl]-4-methyl-benzamide], the negative-log IC50 (pIC50) was 7.7.
With `Cc1ccc(C(=O)NC2CC2)cc1-n1ccnc(N[C@H](C)c2cccc3ccccc23)c1=O` [Example 84, N-Cyclopropyl-4-methyl-3-[3-[[(1R)-1-(1-naphthalenyl)ethyl]amino]-2-oxo-1(2H)-pyrazinyl]-benzamide], the negative logarithm of the IC50 (pIC50) is 8.6.
As for `Cc1ccc(C(=O)NC2CC2)cc1-n1ccnc(N[C@H](CC(=O)NC2CC2)c2ccccc2)c1=O` [Example 89], the pIC50 was determined as 7.6.
As to `Cc1ccc(C(=O)NC2CC2)cc1-n1ccnc(NCC2CCOCC2)c1=O` [Example 90, N-Cyclopropyl-4-methyl-3-[2-oxo-3-[[(tetrahydro-2H-pyran-4-yl)methyl]amino]-1(2H)-pyrazinyl]-benzamide], the pIC50 worked out at 6.4.
The same measure for `Cc1ccc(C(=O)NC2CC2)cc1-n1ccnc(NCc2cccc3c2OCCO3)c1=O` [Example 91, N-Cyclopropyl-3-[3-[[(2,3-dihydro-1,4-benzodioxin-5-yl)methyl]amino]-2-oxo-1(2H)-pyrazinyl]-4-methyl-benzamide]: 7.9; for `Cc1ccc(C(=O)NC2CC2)cc1-n1ccnc(NCc2cccc(C)c2C)c1=O` [Example 92, N-Cyclopropyl-3-[3-[[(2,3-dimethylphenyl)methyl]amino]-2-oxo-1(2H)-pyrazinyl]-4-methyl-benzamide]: 7.6.
Turning to `Cc1ccc(C(=O)NC2CC2)cc1-n1ccnc(NCc2cccc(C(F)(F)F)c2)c1=O` [Example 93, N-Cyclopropyl-4-methyl-3-[2-oxo-3-[[[3-(trifluoromethyl)phenyl]methyl]amino]-1(2H)-pyrazinyl]-benzamide], the pIC50 is reported as 6.9.
As for `Cc1cccc(C2CCCCN2c2nccn(-c3cc(C(=O)NC4CC4)ccc3C)c2=O)c1` (stereo not drawn) [Example 94, N-Cyclopropyl-4-methyl-3-[3-[2-(3-methylphenyl)-1-pipendinyl]-2-oxo-1(2H)-pyrazinyl]-benzamide], the negative logarithm of the IC50 (pIC50) was 7.5.
With `Cc1cc(C)cc(CNc2nccn(-c3cc(C(=O)NC4CC4)ccc3C)c2=O)c1` [Example 95, N-Cyclopropyl-3-[3-[[(3,5-dimethylphenyl)methyl]amino]-2-oxo-1(2H)-pyrazinyl]-4-methyl-benzamide], the negative-log IC50 (pIC50) was found to be 7.7.
As to `Cc1cccc(C2CCCN2c2nccn(-c3cc(C(=O)NC4CC4)ccc3C)c2=O)c1` (stereo not drawn) [Example 96, N-Cyclopropyl-4-methyl-3-[3-[2-(3-methylphenyl)-1-pyrrolidinyl]-2-oxo-1(2H)-pyrazinyl]-benzamide], the pIC50 is 8.5.
For `COc1ccccc1C1CCCN1c1nccn(-c2cc(C(=O)NC3CC3)ccc2C)c1=O` (stereo not drawn) [Example 97, N-Cyclopropyl-3-[3-[2-(2-methoxyphenyl)-1-pyrrolidinyl]-2-oxo-1(2H)-pyrazinyl]-4-methyl-benzamide], the pIC50 was 8.7.
Next, `Cc1ccc(C)c(CNc2nccn(-c3cc(C(=O)NC4CC4)ccc3C)c2=O)c1` [Example 98, N-Cyclopropyl-3-[3-[[(2,5-dimethylphenyl)methyl]amino]-2-oxo-1(2H)-pyrazinyl]-4-methyl-benzamide]: 7.8.

Source of the values: US20120214822A1 (ASTRAZENECA AB, priority 2007, published 2012).
